Converted amounts (≈) assume the structure as drawn. “And” between values parts separate entries of the source, which are not always exact repeats. Equal values may be shown once. Read-outs that look alike come from different tables or passages of the source.

This is an account of results in patent US20230159468A1, “NOVEL FORMS OF PRACINOSTAT DIHYDROCHLORIDE” (Macfarlan Smith Limited, priority 2020, published 2023).

Assay type in all cases: physicochemical
Series [1] can be described thus: Solubility studies in pH buffer at 37° C. with HPLC analysis. Particulars: for solubility at 1 h / solubility at 4 h: pH buffer, 37 °C, thermodynamic from solid; for Observation-1 hr / Observation-4 hr: ~6 mg in 5 mL. As to the method:
Solubility studies are conducted on the pracinostat diHCl co-crystal with fumaric acid according to the following method:
1. Weigh out ˜6 mg pracinostat diHCl co-crystal with fumaric acid in 5 mL pH buffer;
2. Stir samples at 37° C.;
3. After 1 hour, test and record pH, then remove a 2 mL sample for HPLC analysis;
4. Adjust pH of remaining solution using 0.2M NaOH or HCl, if necessary;
5. After 4 hours, test and record pH, then remove a 2 mL sample for HPLC analysis.
The solubility data are collected using an Agilent 1100 Series HPLC system and analyzed using Chemstation software. The method details are listed below.

Series [2] can be described thus: Dynamic vapor sorption (DVS) with XRPD analysis post-DVS. Particulars: for Solid form by XRPD analysis post-DVS: after DVS; for DVS weight change / Hygroscopicity by DVS: between 0-90% RH. From the text: Techniques for characterizing crystal and amorphous forms include but are not limited to differential scanning calorimetry (DSC), thermal gravimetric analysis (TGA), dynamic vapor sorption (DVS), X-ray powder diffractometry (XRPD), single crystal X-ray diffraction (SCXRD), proton nuclear magnetic resonance (^1H-NMR), Fourier transform infrared spectroscopy (FTIR Spectroscopy), and Optical Microscopy.

The nature of series [3]: Stability studies at 40° C./75% RH, evidenced by XRPD. Particulars: open vial covered with Kimwipes and sealed vial.
The nature of series [4]: Solubility in solvent mixture of isopropyl alcohol and water. To be noted: organic solvent or mixture, isopropyl alcohol:water about 8:1 (v/v), about 58° C. From the text:
In one embodiment, the volume ratio of isopropyl alcohol to water in the solvent mixture is about 7-9:1; particularly about 8:1. In one embodiment, the solution of pracinostat diHCl is a saturated solution. […] Another embodiment optionally further comprises filtering the combination of pracinostat diHCl and solvent mixture to ensure no particles remain, i.e., to obtain the solution of pracinostat diHCl. In a particular embodiment, the weight to volume ratio of pracinostat diHCl to the solvent mixture is about 84-104 mg:1 mL; particularly about 94 mg:1 mL, wherein if the pracinostat diHCl is not fully dissolved in the solvent mixture, the combination of pracinostat diHCl and solvent mixture is filtered to obtain the solution of pracinostat diHCl. In one embodiment, the weight to volume ratio of Eudragit RS PO to the solution of pracinostat diHCl is about 3.75-6.25 mg:1 mL. In one embodiment, the weight ratio of Eudragit RS PO to pracinostat diHCl is about 1 mg: 14-16 mg. Another embodiment further comprises applying heating during the combining or using a solvent mixture that is heated. In another embodiment, the heating occurs at about 50-70° C. (particularly about 60° C.), or the solvent mixture is heated to about 50-70° C. (particularly about 60° C.). In one embodiment, the cooling is to about 0-10° C., particularly to about 5° C. […]

[5] abbreviates: starting pH 1.75 buffer, single experiments.
Setting [6] is: starting pH 7.26 buffer, single experiments.

Consider `CCCCc1nc2cc(/C=C/C(=O)NO)ccc2n1CCN(CC)CC`, for which the solubility at 1 h was above 1.07 mg/mL in series [1] (pH 1.75, simulated gastric fluid, starting pH 1.75 buffer, single experiments, read-out: Solubility (mg/mL) 1 hr); 0.16 ± 0.01 mg/mL (≈ 446 µM) in series [1] (pH 7.26, aqueous buffer, starting pH 7.26 buffer, average of Exp. 4-6, read-out: Avg. Solubility ± STD (mg/mL) 1 hr); 0.14 mg/mL (≈ 391 µM) in series [1] (pH 7.26, aqueous buffer, starting pH 7.26 buffer, single experiments, read-out: Solubility (mg/mL) 1 hr). The solubility at 4 h in series [1] (pH 1.75, simulated gastric fluid, starting pH 1.75 buffer, single experiments, read-out: Solubility (mg/mL) 4 hr) was above 1.08 mg/mL; in series [1] (pH 7.26, aqueous buffer, starting pH 7.26 buffer, average of Exp. 4-6, read-out: Avg. Solubility ± STD (mg/mL) 4 hr) it was 0.1 ± 0.02 mg/mL (≈ 279 µM); in series [1] (pH 7.26, aqueous buffer, starting pH 7.26 buffer, single experiments, read-out: Solubility (mg/mL) 4 hr) it was 0.08 mg/mL (≈ 223 µM).
As to `CCCCc1nc2cc(/C=C/C(=O)NO)ccc2n1CCN(CC)CC` [pracinostat diHCl co-crystal with L-arginine], in series [2], the “Solid form by XRPD analysis post-DVS” value is given as “not stable”, the DVS weight change was around 12% and the “Hygroscopicity by DVS” value was “hygroscopic”.
In the case of `CCCCc1nc2cc(/C=C/C(=O)NO)ccc2n1CCN(CC)CC` [pracinostat diHCl co-crystal with fumaric acid], in series [2], the “Solid form by XRPD analysis post-DVS” value is listed as “remains unchanged”, the DVS weight change is reported as around 1.7% and the “Hygroscopicity by DVS” value is listed as “slightly hygroscopic”. For the same compound, the “Time stable (solid form, by XRPD)” value in series [3] is recorded as “at least 9 months”. In series [1] (setting [5]), the “Solubility (mg/mL) 1 hr” value was >0.75 mg/mL and >0.98 mg/mL; the “Solubility (mg/mL) 4 hr” value was >0.81 mg/mL and >0.98 mg/mL. For the same compound, in series [1] (starting pH 1.75 buffer), the Observation-1 hr result is on record as “Clear” and the Observation-4 hr result is on record as “Clear”. Also, in series [1] (setting [6]), the “Solubility (mg/mL) 1 hr” value was 0.16 mg/mL and 0.17 mg/mL; the “Solubility (mg/mL) 4 hr” value was 0.12 mg/mL and 0.09 mg/mL. In series [1] (starting pH 7.26 buffer), the Observation-1 hr entry is recorded as “Cloudy” and the Observation-4 hr result is reported as “Cloudy”.
For `CCCCc1nc2cc(/C=C/C(=O)NO)ccc2n1CCN(CC)CC` [pracinostat diHCl co-crystal with glycine], in series [2], the “Solid form by XRPD analysis post-DVS” value is on record as “remains unchanged”, the DVS weight change is listed as around 8.0% and the “Hygroscopicity by DVS” value is reported as “hygroscopic”.
Consider `CCCCc1nc2cc(/C=C/C(=O)NO)ccc2n1CCN(CC)CC` [pracinostat diHCl, (E)-3-(2-Butyl-1-(2-(diethylamino)ethyl)-1H-benzo[d]imidazol-5-yl)-N-hydroxyacrylamide], for which the solubility in series [4] is around 82600 µg/mL.
